The source of these data is patent US9364448B2, “Nitisinone for treatment of oculocutaneous/ocular albinism and for increasing pigmentation” (The United States of America, as represented by the …, priority 2010, dated 2016).

Each structure is given as a SMILES string.

Experiment [1] relates to C57BL/6J-Tyr^c-2J/c-2J mice (OCA1a model). Briefly: Plasma tyrosine in NTBC-treated Tyr^c-2J/c-2J mice. It counts as in vivo, mouse. As to the method:
Drug Dosing and Monitoring. […] Plasma tyrosine was assayed from retro-orbital blood taken from mice at 1 week, and 4 weeks into treatment. Because the volume of blood that could be obtained from non-terminal bleeds was small, the plasma from 2-3 mice was pooled to make a single measurement. Plasma samples were frozen immediately after collection on dry ice. Samples ready for assay were gently thawed, diluted with an equal volume of loading buffer (0.2 M lithium citrate, pH 2.2), and filtered using Vivaspin 500 (3000 Da molecular weight cut-off, Sartorius Stedman Biotech, Goettingen, Germany) spun in a fixed angle centrifuge at about 14000×g for 60 minutes at a temperature of about 16-20° C. The supernatant was collected and tyrosine was quantitated on a Biochrom 30 […] (Biochrom, Ltd., Cambridge, UK) using the manufacturer's specifications. At the beginning of the study, baseline plasma concentrations of tyrosine, coat color (gross and microscopic), anterior segment pigment, and posterior segment pigment were documented for each mouse prior to initiating experiments. […] It is known that a possible side effect of NTBC treatment is corneal irritation, which is monitored daily. […] At the end of four weeks time, plasma tyrosine concentrations were assessed in both treated and control animals.

Experiment [2] has as its system melanocytes from a patient with OCA-1B. Nature of the experiment: Human melanocyte melanin assay, OCA-1B patient. It counts as cell-based. The settings on record: 1 mM tyrosine, p=0.0025, not to wild-type level. As to the method:
Human melanocyte culture and melanin assay. Human melanocytes were established from skin punch biopsies. Skin specimens were washed with PBS then treated with 0.25% trypsin-EDTA (Gibco 25200) for about 2 hours followed by vigorous vortexing to separate the epidermis. The epidermis was sectioned and attached to scored patches on the bottom of a 6-well polystyrene culture dish before being covered with melanocyte media. About 1000 ml of melanocyte media was made from 950 ml Ham's F10 (Gibco 1550), 25 ml FBS, 5 ug bFGF (Sigma F0291), 10 μg endothelin (Sigma, E7764, Sigma Chemicals, St. Louis, Mo.), 7.5 mg IBMX (Sigma 17018), 30 μg cholera toxin (Sigma C8052), 3.3 μg TPA (Sigma P8139), 10 ml PenStrepGlutamine, 1 ml fungizone and the media was 0.22 μm filtered.
Melanocytes were plated on 6 well dishes and grown to confluency. Melanin assays were run in triplicate by supplementing three wells per plate with 1 mM tyrosine (Sigma T8566), using the remaining 3 wells as untreated controls. Treatment time was approximately one week. […] The OD475 was measured and converted to melanin content via a standard curve using synthetic melanin (Sigma M0418). The data were normalized to protein content, determined using a bicinchoninic (BCA) assay kit (BioRad, Inc., Hercules, Calif.). Differences between treated and untreated measurements were analyzed with a two-tailed unpaired t-test. […]

As for `O=C1CCCC(=O)C1C(=O)c1ccc(C(F)(F)F)cc1[N+](=O)[O-]` [NTBC, 2-(-2-nitro-4 trifluoromethylbenzoyl)-1,3 cyclohexanedione], the Plasma tyrosine concentration in experiment [1] (Tyr^c-2J/c-2J (OCA1a model), 4 mg/kg q.o.d. oral, after 30 days, n = 4) was 673 ± 73 μM (n = 4,. Besides, the “Plasma tyrosine concentrations, treated vs control” value in experiment [1] (Tyr^c-2J/c-2J mice, 1 mg/kg every other day by oral gavage, one month) is reported as “not statistically significantly different”.

In the case of `N[C@@H](Cc1ccc(O)cc1)C(=O)O` [tyrosine], in experiment [2], the Pigmentation entry is listed as “significantly increased pigmentation”.
